Experimental data: patent US20250066310A1, “MULTI-SUBSTITUTED URACIL DERIVATIVE AND PREPARATION METHOD THEREFOR AND APPLICATION THEREOF” (HANGZHOU ADAMERCK PHARMLABS INC., priority 2021, published 2025)
Marks after values point to notes of the source that are not given here.

Tests used:
[1] = tested on: mice injected with ellagic acid via the tail vein; experiment: Effect on in vivo clotting time in mice (ellagic acid tail vein injection); conditions: Mus musculus, iv, 100 mg/kg i.g. for 4 days, ellagic acid i.v. 1 h after last dose, vs model group, read-out: Clotting time prolongation (%)
Procedure: The control and model groups were gavaged with distilled water, and the positive clopidogrel group, and the test substance group were gavaged orally (i.g.) with drug solution in a volume of 0.1 mL/10 g for 4 consecutive days. 1 h after the last administration, all groups were injected with 0.15 mL/10 g of 0.3% ellagic acid solution via tail vein injection except for the blank group which was injected with physiological saline: 0.1 ml/10 g. After 5 min, glass capillaries were used for blood collection through the retro-orbital venous plexus, and the appearance time of coagulation filaments was recorded by glass capillaries at 10-second intervals.
Calculation equation for prolongation of clotting time:
Prolongation of clotting time (%)=[(mean value of clotting time in blank or administered group/mean value of clotting time in model group)−1]×100%

[2] = tested on: acute inflammatory response caused by ellagic acid (serum cytokines); experiment: Antibody microarray detection of serum factors in ellagic acid model mice; type: in vivo, ICR mice; design: TNFa / IL-6 / IL-1b / IL-5 / IL-13 / IL-1α / IL-1β / IL-2 / IL-3 / IL-4 / IFNg / CD40: unit not given here
Procedure: Experimental methods: ICR male mice, weighed about 25 g, were randomly divided into four groups: normal group, ellagic acid model group, 1-1 group, and 1-22 group, with four mice in each group. Mice in 1-1 group and 1-22 group were given 1-1, 100 mg/kg and 1-22, 100 mg/kg by gavage once a day respectively. 1 h after the third administration, except for the normal control group, the other three groups of mice were injected into the tail vein with 0.10 mL/10 g of 0.3% ellagic acid saline solution, and 1 h after injection, whole blood was collected from each animal, and centrifuged (3,000 rpm/min) for 10 min after 30 min of standing, and then centrifuged to obtain the serum. The serum from each group of animal was mixed in an EP tube, transported at −80° C., and sent for antibody microarray detection.

[3] = Table 16, pooled serum, 100 mg/kg by gavage
[4] = Table 17, pooled serum, 100 mg/kg by gavage
[5] = Table 18, pooled serum, 100 mg/kg by gavage
[6] = Table 19, pooled serum, 100 mg/kg by gavage

CCOC(=O)CCNC(=O)CCNc1cc(=O)n(C)c(=O)n1C [Compound 1-1]
change in vivo at 100 mg/kg [1]: 43.3%
IL-6 [2, 3]: 18,375.64*
RANTES/ccl5 [2, 3]: 2,825.89*
TNFa [2, 3]: 386.79
IL-1b ([2]; Table 16, pooled serum, 100 mg/kg by gavage once a day x3, 1 h after ellagic acid): 312.69
IL-1α [2, 4]: 1,118.99*
IL-1β [2, 4]: 312.69
IL-2 [2, 4]: 565.56
IL-3 [2, 4]: 1,106.55
IL-4 [2, 4]: 1,367.20
IL-5 [2, 4]: 285.74*
IL-6 [2, 4]: 18,375.64*
IL-13 [2, 4]: 800.30*
Eotaxin/CCL11 [2, 5]: 4,696.55
MCP1/CCL2 [2, 5]: 3,045.61
MIP-3a/CCL20 [2, 5]: 1,505.55*
RANTES/CCL5 [2, 5]: 2,825.89*
CD40 [2, 6]: 639.15
IFNg [2, 6]: 295.07*
number of down-regulated differential proteins ([2]; interleukin factors (Table 17), compared with the model group): four
